Test results as given in patent US12595438B2, “Biodegradable quaternary ammonium compound” (GALAXY SURFACTANTS LTD., priority 2021, dated 2026).

Tests used:
Type in all cases: cell-based
Test Organism = experiment: Overall MIC over all test organisms
Source text: (§1) The Minimum Inhibitory concentration (MIC) is the lowest dilution which inhibits the growth of microorganism. MIC assays generate a value in μg/mL for the exact, lowest concentration of the antimicrobial agent that prevents the visible growth of bacteria. MIC was detected by using test tube method using different dilution in sterile tryptic soya broth (growth medium). (Ref.: https://www.ncbi.nlm.nih.gov/pmc/articles/PMC7470068/ this link describes about Test tube method of MIC)
(§2) • Working stock preparation: 1% in sterile D/W • Diluent: Sterile tryptic soy broth • Dilution range: 0.1% to 1%, further diluted to 100 ppm to 1000 ppm • Addition of culture: 0.1 mL of 18-24 hours old culture • Incubation temperature and time: • Bacteria: 37° C. for 24-48 hours • Y/M: 22.5° C. for 48-72 hours
(§3) The minimum inhibitory concentration (MIC) of Diamidoquat (DAQ), Benzalkonium chloride (BKC) and Esterquat (EQ) is shown in Table 1.
(§4) Antimicrobial efficacy of diamidoquat was studied as per MIC standard protocol.

S. aureus ATCC 6538 = experiment: MIC determination, test tube method; conditions: tryptic soy broth, 37° C. for 24-48 hours
Source text: as §1, §2, §4

A. niger ATCC 16404 = experiment: MIC determination, test tube method; conditions: tryptic soy broth, 22.5° C. for 48-72 hours
Source text: as §1, §2, §4

E. coli ATCC 10142 = experiment: MIC determination, test tube method; conditions: tryptic soy broth, 37° C. for 24-48 hours
Source text: as §1, §2, §4

C. albicans ATCC 10231 = experiment: MIC determination, test tube method; conditions: tryptic soy broth, 22.5° C. for 48-72 hours
Source text: as §1, §2, §4

P. aeruginosa ATCC 9372 = experiment: MIC determination, test tube method; conditions: tryptic soy broth, 37° C. for 24-48 hours
Source text: as §1, §2, §3, §4

Substance: Benzalkonium chloride [BKC]
- Overall MIC (Test Organism): 0.7%
- MIC (S. aureus ATCC 6538): 0.6%
- MIC (A. niger ATCC 16404): 0.7%
- MIC (E. coli ATCC 10142): 0.7%
- MIC (C. albicans ATCC 10231): 0.7%
- MIC (P. aeruginosa ATCC 9372): 0.7%
